Test results as given in patent US20250092010A1, “DIHYDRO-2H-ISOINDOLE ESTER COMPOUND” (Shanghai Maius Pharmaceutical Co. Ltd., priority 2021, published 2025).

Experiments:
[1] = Pharmacokinetic assays after oral gavage administration to rats; assay type: in vivo, male SD rats; set-up: Tmax / AUC(0-∞): concentration or dose not given beside the values; AUMC(0-t) / AUMC(0-∞): unit not given here; settings: for average retention time / time to peak concentration / AUC(0-∞) / AUMC(0-t) / AUMC(0-∞) / CLz/F / Cmax / MRT(0-t) / MRT(0-∞) / Tmax / VRT(0-t) / VRT(0-∞) / t½z / AUC(0-t): active metabolite; for AUC value of the active metabolite equivalent to % of that of the existing drugs: existing drugs administered at the same molar amount; for AUC(0-∞) / AUMC(0-t) / AUMC(0-∞) / CLz/F / Cmax / MRT(0-t) / MRT(0-∞) / Tmax / VRT(0-t) / VRT(0-∞) / t½z / AUC(0-t): plasma, oral gavage, male SD rats; for AUC(0-t): suspension in 0.5% CMC-Na
Procedure: Instruments: ultra high performance liquid chromatography (Acquity UPLC, Waters) system; triple quadrupole mass spectrometer (Qtrap 5500, Sciex); high-speed refrigerated centrifuge (5430R, Eppendorf).
Chromatography Condition: Column: 2.1×50 mm (1.7 μm, BEH C18, Waters); Column Temperature: 45° C.; Mobile Phase: 0.1% aqueous solution of formic acid (A)/acetonitrile; Gradient: see the table below: […]
Mass Spectrometry Condition: Mode: positive ion multiple reaction monitoring (MRM); Curtain Gas: 45 psi; Gas 1:45 psi; Gas 2:45 psi; Ion Source Temperature: 500° C.; Ion Source Voltage: 5000 V. Precursor ions (Q1), product ions (Q3) and collision energy (CE) of some compounds are listed in the table below:
Experimental Animals: male SD rats, 6 in each group, weighing 200-220 grams, fasting overnight before experimentation.
Preparation of Drugs: lenalidomide, as a reference drug, and the test compounds (Compounds 1-10) were accurately weighed and dispensed in 0.5% CMC-Na solutions, resulting in suspensions.
Drug Administration to and Blood Collection from Animals: the drugs were oral gavage administered to the rats, and 100-μl blood samples were taken before administration and 10 min, 20 min, 40 min, 1 h, 1.5 h, 2 h, 3 h, 5 h, 8 h, 12 h, 21 h, 24 h and 30 h after administration. Each sample was placed in an ice bath, centrifuged for plasma collection, frozen and stored.
Plasma drug concentration Data and Calculation of Pharmacokinetic Parameters: Plasma drug concentration data was processed using MultiQuan 3.0 (Sciex), and pharmacokinetic parameters were calculated using DAS 2.0 software. Plasma drug concentrations were measured in ug/L.

[2] = patients, cited from earlier work

average retention time [1] [h]	time to peak concentration [1] [h]	AUC value of the active metabolite equivalent to % of that of the existing drugs [1] [%]	AUC(0-∞) [1] [ng·h/mL]	AUMC(0-t) [1]	AUMC(0-∞) [1]	CLz/F [1] [mL/min/kg]	Cmax [1] [ng/mL]	MRT(0-t) [1] [h]	MRT(0-∞) [1] [h]	Tmax [1] [h]	VRT(0-t) [1] [h^2]	VRT(0-∞) [1]	t½z [1] [h]	AUC(0-t) [1] [ng·h/mL]	SMILES	myelosuppression grade ([2]; 50 mg per day, 28th day of treatment)	maximum tolerated dose (MTD) ([2]; clinical study) [mg per day]
4.5	0.8	45	3889.6 ± 435.6	32705.8 ± 3125.3	33484.2 ± 3040.7	71.7 ± 17	543.6 ± 68.5	4.5 ± 0.7	4.6 ± 0.6	0.8 ± 0.4	13 ± 2.2	14.3 ± 2.1 h^2	2.8 ± 0.3	3822 ± 424.5	CC(C)OC(=O)Nc1cccc2c1CN(C1CCC(=O)NC1=O)C2=O (centres unmarked) [Compound 1]		
			1257 ± 209.6	8749 ± 352.6	8954 ± 336.4	70 ± 15	158 ± 31.1	4 ± 0.5	1.1 ± 0.6	4 ± 0.5	11 ± 1.8	11.8 ± 2.1^ h^2	3.0 ± 0.3	1022 ± 214.5	CCCCCCOC(=O)Nc1cccc2c1CN(C1CCC(=O)NC1=O)C2=O (centres unmarked) [Compound 5]		
8.6	7	61	5229.3 ± 755.1	44683.6 ± 4956.6	45199.7 ± 4922.6	98.3 ± 17	405.4 ± 89.8	8.6 ± 0.6	8.7 ± 0.6	7 ± 1.5	20 ± 2.5	21.8 ± 2.8 h^2	2.9 ± 0.4	5217 ± 754.8	Cc1oc(=O)oc1COC(=O)Nc1cccc2c1CN(C1CCC(=O)NC1=O)C2=O (centres unmarked) [Compound 6]		
			584.3 ± 50.3	3965 ± 415.1	4123 ± 446.1	68.3 ± 18.3	135 ± 23.0	3.8 ± 0.7	3.8 ± 0.8	3.5 ± 0.8	10 ± 1.3	10.5 ± 1.3 h^2	3.1 ± 0.2	503.2 ± 42.6	CCCCCCCCOC(=O)Nc1cccc2c1CN(C1CCC(=O)NC1=O)C2=O (centres unmarked) [Compound 7]		
			421.5 ± 55.6	3596 ± 401.3	3689 ± 411.6	63.3 ± 15	105.3 ± 24.1	3.8 ± 0.5	3.9 ± 0.5	3.8 ± 1.1	9.8 ± 1.5	9.9 ± 1.6 h^2	2.9 ± 0.3	489.4 ± 50.3	CCCCCCCCCCCOC(=O)Nc1cccc2c1CN(C1CCC(=O)NC1=O)C2=O (centres unmarked) [Compound 8]		
			456 ± 48.0	3126 ± 298.1	3360 ± 318.6	70 ± 16.7	95.6 ± 22.2	3.5 ± 0.6	3.6 ± 0.7	4.1 ± 0.8	10 ± 1.5	10.2 ± 1.5 h^2	3.0 ± 0.4	402.5 ± 51.6	CCCCCCCCCCCCCCCCCCOC(=O)Nc1cccc2c1CN(C1CCC(=O)NC1=O)C2=O (centres unmarked) [Compound 9]		
			1765 ± 226.3	13691 ± 587.2	14002 ± 589.6	65 ± 13	163.2 ± 26.4	5.2 ± 0.7	5.2 ± 0.7	5 ± 0.9	14 ± 2.1	14.2 ± 2.2 h^2	3.1 ± 0.5	1568 ± 205.4	CCC(CC)COC(=O)Nc1cccc2c1CN(C1CCC(=O)NC1=O)C2=O (centres unmarked) [Compound 10]		
															Nc1cccc2c1CN(C1CCC(=O)NC1=O)C2=O (centres unmarked) [reference drug, lenalidomide]	Grade 3 myelosuppression	25
